Laboratory results from patent US8378117B2 (priority 2005, dated 2013).
pIC50: −log10 of the molar value. Like-named read-outs stand apart in the source and are kept apart here.

Experiments:
CB1 receptor = biological target: T1, CB1 receptor (Homo sapiens, UniProt P21554); experiment: Binding assay for CB1 agonists or inverse agonists (SK-N-MC membranes, [3H]-CP-55,940); settings: for inhibition at 0.2 µM: read-out: CB1 receptor binding percent inhibition, test concentration 0.2 μM (footnote 2); for inhibition at 1 µM: read-out: CB1 receptor binding percent inhibition, test concentration 1 μM (footnote 1); for CB1 receptor binding average percent inhibition: value shown is an average percent inhibition (footnote 5), concentration not given
T1 construct: expressed in transfected cells
Outline: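 Membranes from SK-N-MC cells stably expressing human CB1 incubated with compound and [3H]-CP-55,940 ([…]) for 90 min at 30° C in Tris-HCl pH 7.5, MgCl2, EDTA, fatty-acid-free BSA. Non-specific binding defined with 10 uM WIN 55,212; filtration, scintillation count; IC50 by linear regression.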

CB2 receptor = biological target: T2, CB2 receptor (Homo sapiens, UniProt P34972); experiment: Binding assay for CB2 agonists or inverse agonists (SK-N-MC membranes, [3H]-CP-55,940); settings: for inhibition at 0.2 µM: test concentration 0.2 μM (footnote 2), read-out: CB2 receptor binding percent inhibition; for CB2 receptor binding percent inhibition: test concentration not stated; for pIC50: Cannabinoid CB2 Receptor Binding IC50, calculated by linear regression from percent inhibition at various test concentrations
T2 construct: expressed in transfected cells
Outline: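 Membranes from SK-N-MC cells stably expressing human CB2 were incubated with radioligand and test compounds for 90 min at 30 °C in Tris-HCl buffer, pH 7.5, with MgCl2, EDTA and fatty-acid-free BSA. Filter-bound radioactivity was counted; IC50 was derived by linear regression of percent inhibition.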

T1 sequence (P21554 whole entry): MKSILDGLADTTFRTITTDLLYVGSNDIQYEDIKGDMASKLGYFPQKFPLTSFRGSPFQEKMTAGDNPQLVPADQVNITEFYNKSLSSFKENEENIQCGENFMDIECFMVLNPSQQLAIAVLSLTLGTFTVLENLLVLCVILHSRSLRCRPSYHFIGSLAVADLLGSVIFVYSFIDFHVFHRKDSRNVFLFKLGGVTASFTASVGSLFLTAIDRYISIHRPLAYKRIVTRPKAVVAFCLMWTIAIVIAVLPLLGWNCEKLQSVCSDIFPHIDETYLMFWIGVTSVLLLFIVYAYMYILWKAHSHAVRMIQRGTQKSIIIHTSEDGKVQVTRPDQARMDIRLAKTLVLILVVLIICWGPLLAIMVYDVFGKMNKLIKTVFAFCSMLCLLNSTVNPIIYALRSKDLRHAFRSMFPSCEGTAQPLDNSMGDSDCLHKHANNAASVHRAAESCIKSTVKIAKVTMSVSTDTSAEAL
T2 sequence (P34972 whole entry): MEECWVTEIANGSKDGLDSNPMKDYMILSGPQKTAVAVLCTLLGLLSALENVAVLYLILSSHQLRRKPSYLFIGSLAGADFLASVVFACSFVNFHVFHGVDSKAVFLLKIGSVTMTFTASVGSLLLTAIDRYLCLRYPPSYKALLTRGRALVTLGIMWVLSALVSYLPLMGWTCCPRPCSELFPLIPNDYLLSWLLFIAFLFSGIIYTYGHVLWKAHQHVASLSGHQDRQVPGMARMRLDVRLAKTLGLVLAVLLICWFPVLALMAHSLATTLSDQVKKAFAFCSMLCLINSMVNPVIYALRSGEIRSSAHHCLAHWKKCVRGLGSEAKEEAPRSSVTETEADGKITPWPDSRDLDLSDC

`O=C(NN1CCCCC1)c1nn(-c2ccncc2)c2c1CCCC/C2=C\c1ccc(Cl)cc1` [Cpd 182, (8E)-8-(4-chloro-benzylidene)-1-pyridin-4-yl-1,4,5,6,7,8-hexahydro-cycloheptapyrazole-3-carboxylic acid piperidin-1-ylamide] was tested, and the inhibition at 0.2 µM (CB1 receptor) was 21% and the inhibition at 0.2 µM (CB2 receptor) was 31%.
In the case of `C[C@@H](NC(=O)c1nn(C2CCCCC2)c2c1CCCCC2Cc1ccc(Cl)cc1)c1ccccc1` (stereo partly drawn) [Cpd 6, 8-(4-chloro-benzyl)-1-cyclohexyl-1,4,5,6,7,8-hexahydro-cycloheptapyrazole-3-carboxylic acid [(1R)-1-phenyl-ethyl]-amide], the inhibition at 1 µM (CB1 receptor) was 26% and the “CB2 receptor binding percent inhibition” value (CB2 receptor) was 4%.
In the case of `C[C@@H](NS(=O)(=O)C=Cc1n[nH]c2c1CCCCC2Cc1cccc(F)c1)c1ccccc1` (stereo partly drawn) [Cpd 235, 2-[8-(3-fluoro-benzyl)-1,4,5,6,7,8-hexahydro-cycloheptapyrazol-3-yl]-ethenesulfonic acid [(1R)-1-phenyl-ethyl]-amide], the inhibition at 0.2 µM (CB1 receptor) was 0% and the inhibition at 0.2 µM (CB2 receptor) was 41%.
`CC(C)(C)OC(=O)N1CCC(NC(=O)c2nn(C3CCCCC3)c3c2CCCCC3Cc2cccc(F)c2)CC1` (stereo not drawn) [Cpd 46, 4-{[1-cyclohexyl-8-(3-fluoro-benzyl)-1,4,5,6,7,8-hexahydro-cycloheptapyrazole-3-carbonyl]-amino}-piperidine-1-carboxylic acid tert-butyl ester] was tested, and the inhibition at 1 µM (CB1 receptor) was 45% and the “CB2 receptor binding percent inhibition” value (CB2 receptor) was 0%.
In the case of `CC(NC(=O)c1nn(C2CCCCC2)c2c1CCCCC2Cc1cccc(Cl)c1)C12CC3CC(CC(C3)C1)C2` (stereo not drawn) [Cpd 10, 8-(3-chloro-benzyl)-1-cyclohexyl-1,4,5,6,7,8-hexahydro-cycloheptapyrazole-3-carboxylic acid (1-adamantan-1-yl-ethyl)-amide], the inhibition at 1 µM (CB1 receptor) was 0% and the “CB2 receptor binding percent inhibition” value (CB2 receptor) was 8%.
`CC12CCC(C1)C(C)(C)[C@H]2NC(=O)c1nn(-c2ccc(Cl)cc2Cl)c2c1CCCCC2Cc1cccc(Cl)c1` (stereo partly drawn) [Cpd 15, 8-(3-chloro-benzyl)-1-(2,4-dichloro-phenyl)-1,4,5,6,7,8-hexahydro-cycloheptapyrazole-3-carboxylic acid [(2S)-1,3,3-trimethyl-bicyclo[2.2.1]hept-2-yl]-amide] was tested, and the inhibition at 1 µM (CB1 receptor) was 58% and the “CB2 receptor binding percent inhibition” value (CB2 receptor) was 54%.
For `C[C@@H](NC(=O)c1nn(-c2nccc(C(F)(F)F)n2)c2c1CCCCC2Cc1cccc(Cl)c1)c1ccccc1` (stereo partly drawn) [Cpd 175, 8-(3-chloro-benzyl)-1-(4-trifluoromethyl-pyrimidin-2-yl)-1,4,5,6,7,8-hexahydro-cycloheptapyrazole-3-carboxylic acid [(1R)-1-phenyl-ethyl]-amide], the inhibition at 0.2 µM (CB1 receptor) was 30% and the inhibition at 0.2 µM (CB2 receptor) was 36%.
`O=C(NC12CC3CC(CC(C3)C1)C2)c1nn(-c2ccc(Cl)cc2Cl)c2c1CCCCC2Cc1cccc(Cl)c1` (stereo not drawn) [Cpd 22, 8-(3-chloro-benzyl)-1-(2,4-dichloro-phenyl)-1,4,5,6,7,8-hexahydro-cycloheptapyrazole-3-carboxylic acid adamantan-1-ylamide] was tested, and the inhibition at 1 µM (CB1 receptor) was 58% and the “CB2 receptor binding percent inhibition” value (CB2 receptor) was 25%.
Work on `C[C@@H](NS(=O)(=O)/C=C/c1n[nH]c2c1CCCC/C2=C\c1ccc(Cl)cc1)c1ccccc1` [Cpd 236, (2E,8E)-2-[8-(4-chloro-benzylidene)-1,4,5,6,7,8-hexahydro-cycloheptapyrazol-3-yl]-ethenesulfonic acid [(1R)-1-phenyl-ethyl]-amide] yielded an inhibition at 0.2 µM (CB1 receptor) of 0% and an inhibition at 0.2 µM (CB2 receptor) of 41%.
For `COC(=O)[C@@H](Cc1ccc(O)cc1)NC(=O)c1nn(C2CCCCC2)c2c1CCCCC2Cc1cccc(F)c1` (stereo partly drawn) [Cpd 82, (2R)-2-{[1-cyclohexyl-8-(3-fluoro-benzyl)-1,4,5,6,7,8-hexahydro-cycloheptapyrazole-3-carbonyl]-amino}-3-(4-hydroxy-phenyl)-propionic acid methyl ester], the pIC50 (CB1 receptor; calculated by linear regression from percent inhibition at various test concentrations, read-out: Cannabinoid CB1 Receptor Binding IC50) was 6.00, the “CB1 receptor binding average percent inhibition” value (CB1 receptor) was 46% and the pIC50 (CB2 receptor) was 7.22. For the same molecule, the “CB2 receptor binding average percent inhibition” value (CB2 receptor; value shown is an average percent inhibition (footnote 5), concentration not given) was 88%.
For `O=C(NC12CC3CC(CC(C3)C1)C2)c1nn(C2CCCCC2)c2c1CCCCC2Cc1ccc(Cl)cc1` (stereo not drawn) [Cpd 20, 8-(4-chloro-benzyl)-1-cyclohexyl-1,4,5,6,7,8-hexahydro-cycloheptapyrazole-3-carboxylic acid adamantan-1-ylamide], the inhibition at 1 µM (CB1 receptor) was 4% and the “CB2 receptor binding percent inhibition” value (CB2 receptor) was 28%.
Molecule `CC12CCC(C1)C(C)(C)[C@H]2NC(=O)c1nn(-c2ccc(F)cc2F)c2c1CCCCC2Cc1ccc(F)cc1` (stereo partly drawn) [Cpd 97, 1-(2,4-difluoro-phenyl)-8-(4-fluoro-benzyl)-1,4,5,6,7,8-hexahydro-cycloheptapyrazole-3-carboxylic acid [(2S)-1,3,3-trimethyl-bicyclo[2.2.1]hept-2-yl]-amide] has an inhibition at 1 µM (CB1 receptor) of 38%, a pIC50 (CB2 receptor) of 6.52 and an inhibition at 1 µM (CB2 receptor; read-out: CB2 receptor binding percent inhibition, test concentration 1 μM (footnote 1)) of 71%.
In the case of `O=C(NN1CCOCC1)c1nn(C2CCCCC2)c2c1CCCCC2Cc1cccc(F)c1` (stereo not drawn) [Cpd 90, 1-cyclohexyl-8-(3-fluoro-benzyl)-1,4,5,6,7,8-hexahydro-cycloheptapyrazole-3-carboxylic acid morpholin-4-ylamide], the inhibition at 1 µM (CB1 receptor) was 1% and the “CB2 receptor binding percent inhibition” value (CB2 receptor) was 2%.
Molecule `C[C@@H](NC(=O)c1nn(-c2ccncc2)c2c1CCCC/C2=C\c1ccc(Cl)cc1)c1ccccc1` [Cpd 170, (8E)-8-(4-chloro-benzylidene)-1-pyridin-4-yl-1,4,5,6,7,8-hexahydro-cycloheptapyrazole-3-carboxylic acid [(1R)-1-phenyl-ethyl]-amide] has an inhibition at 0.2 µM (CB1 receptor) of 29% and an inhibition at 0.2 µM (CB2 receptor) of 27%.
For `O=S(=O)(/C=C/c1nn(-c2ccc(F)cc2F)c2c1CCCCC2Cc1ccc(F)cc1)NN1CCOCC1` (stereo not drawn) [Cpd 127, (2E)-2-[1-(2,4-difluoro-phenyl)-8-(4-fluoro-benzyl)-1,4,5,6,7,8-hexahydro-cycloheptapyrazol-3-yl]-ethenesulfonic acid morpholin-4-ylamide], the inhibition at 1 µM (CB1 receptor) was 36% and the “CB2 receptor binding percent inhibition” value (CB2 receptor) was 0%.
In the case of `C[C@H](NC(=O)c1nn(-c2ccncc2)c2c1CCCC/C2=C\c1ccc(Cl)cc1)c1ccccc1` [Cpd 171, (8E)-8-(4-chloro-benzylidene)-1-pyridin-4-yl-1,4,5,6,7,8-hexahydro-cycloheptapyrazole-3-carboxylic acid [(1S)-1-phenyl-ethyl]-amide], the inhibition at 0.2 µM (CB1 receptor) was 2% and the inhibition at 0.2 µM (CB2 receptor) was 38%.
In the case of `Cc1ccc(CC2CCCCc3c(C(=O)NC4C5(C)CCC(C5)C4(C)C)nn(-c4ccc(F)cc4)c32)cc1` (stereo not drawn) [Cpd 1, 1-(4-fluoro-phenyl)-8-(4-methyl-benzyl)-1,4,5,6,7,8-hexahydro-cycloheptapyrazole-3-carboxylic acid (1,3,3-trimethyl-bicyclo[2.2.1]hept-2-yl)-amide], the pIC50 (CB1 receptor; Cannabinoid CB1 Receptor Binding IC50, calculated by linear regression from percent inhibition at various test concentrations) was 6.70 and the pIC50 (CB2 receptor) was 6.52.
In the case of `Cn1nc(C(=O)n2ccnc2)c2c1/C(=C/c1cccc(F)c1)CCCC2` [Cpd 243, (8E)-[8-(3-fluoro-benzylidene)-1-methyl-1,4,5,6,7,8-hexahydro-cycloheptapyrazol-3-yl]-imidazol-1-yl-methanone], the inhibition at 0.2 µM (CB1 receptor) was 0% and the inhibition at 0.2 µM (CB2 receptor) was 0%.
`O=C(c1nn(C2CCCCC2)c2c1CCCCC2Cc1cccc(F)c1)N1CCN(c2ccccc2)CC1` (stereo not drawn) [Cpd 54, [1-cyclohexyl-8-(3-fluoro-benzyl)-1,4,5,6,7,8-hexahydro-cycloheptapyrazol-3-yl]-(4-phenyl-piperazin-1-yl)-methanone] was tested, and the inhibition at 1 µM (CB1 receptor) was 18% and the “CB2 receptor binding percent inhibition” value (CB2 receptor) was 41%.
`O=C(N[C@@H](CO)c1ccccc1)c1nn(C2CCCCC2)c2c1CCCC[C@@H]2Cc1ccc(F)cc1` [Cpd 66, (8R)-1-cyclohexyl-8-(4-fluoro-benzyl)-1,4,5,6,7,8-hexahydro-cycloheptapyrazole-3-carboxylic acid [(1R)-2-hydroxy-1-phenyl-ethyl]-amide] was tested, and the inhibition at 1 µM (CB1 receptor) was 16% and the “CB2 receptor binding percent inhibition” value (CB2 receptor) was 33%.
`O=C(N[C@H](CO)Cc1ccc(O)cc1)c1n[nH]c2c1CCCC/C2=C\c1cccc(Cl)c1` [Cpd 246, (8E)-(2S)-8-(3-chloro-benzylidene)-1,4,5,6,7,8-hexahydro-cycloheptapyrazole-3-carboxylic acid [1-hydroxymethyl-2-(4-hydroxy-phenyl)-ethyl]-amide] showed an inhibition at 0.2 µM (CB1 receptor) of 0% and an inhibition at 0.2 µM (CB2 receptor) of 15%.
Work on `O=C(c1n[nH]c2c1CCCC/C2=C\c1ccc(Cl)cc1)N1CCCCC1` [Cpd 223, (8E)-[8-(4-chloro-benzylidene)-1,4,5,6,7,8-hexahydro-cycloheptapyrazol-3-yl]-piperidin-1-yl-methanone] yielded an inhibition at 0.2 µM (CB1 receptor) of 40% and an inhibition at 0.2 µM (CB2 receptor) of 58%.
In the case of `O=C(NC1CCC1)c1nn(-c2ccc(Cl)cc2Cl)c2c1CCCCC2Cc1ccc(F)cc1` (stereo not drawn) [Cpd 70, 1-(2,4-dichloro-phenyl)-8-(4-fluoro-benzyl)-1,4,5,6,7,8-hexahydro-cycloheptapyrazole-3-carboxylic acid cyclobutylamide], the “CB1 receptor binding average percent inhibition” value (CB1 receptor) was “^(5)37%” and the “CB2 receptor binding percent inhibition” value (CB2 receptor) was 3%.
For `O=C(NN1CCCCC1)c1nn(-c2ccccc2Cl)c2c1CCCC/C2=C\c1ccc(Cl)cc1` [Cpd 193, (8E)-8-(4-chloro-benzylidene)-1-(2-chloro-phenyl)-1,4,5,6,7,8-hexahydro-cycloheptapyrazole-3-carboxylic acid piperidin-1-ylamide], the inhibition at 0.2 µM (CB1 receptor) was 43% and the inhibition at 0.2 µM (CB2 receptor) was 16%.
